The source made the active and inactive calls. The rule behind the calls is not given here.
Experiments:
Mus musculus [1] = test: Antihyperglycemic activity in overnight fasted ICR mouse assessed as decrease in blood glucose level at 20 mg/kg, IG administered via tube and measured after 15 mins by sucrose loading test relative to control; format: functional; parameters: scale not given: the % may be the effect or the level left; settings: 0.25 h
Mus musculus [2] = test: Antihyperglycemic activity in overnight fasted ICR mouse assessed as decrease in blood glucose level at 20 mg/kg, IG administered via tube and measured after 60 mins by sucrose loading test relative to control; format: functional; parameters: scale not given: the % may be the effect or the level left; settings: 1 h
Mus musculus [3] = test: Antihyperglycemic activity in overnight fasted ICR mouse assessed as decrease in AUC of blood glucose level at 20 mg/kg, IG administered via tube and measured after 15 to 60 mins by sucrose loading test relative to control; format: functional; parameters: scale not given: the % may be the effect or the level left; settings: time 15-60 min
Mus musculus [4] = test: Antihyperglycemic activity in overnight fasted ICR mouse assessed as decrease in blood glucose level at 20 mg/kg, IG administered via tube and measured after 30 mins by sucrose loading test relative to control; format: functional; parameters: scale not given: the % may be the effect or the level left; settings: 0.5 h
[5] = biological target: T1, Sucrase-isomaltase, intestinal (Rattus norvegicus, UniProt P23739); test: Binding affinity to sucrase in rat small intestinal brush border membrane vesicles assessed as inhibition constant using sucrose as substrate incubated for 30 mins by glucose-oxidase method; format: cell membranes, Small intestine, Membrane vesicle
T1 sequence (P23739 1-1013 limits assumed): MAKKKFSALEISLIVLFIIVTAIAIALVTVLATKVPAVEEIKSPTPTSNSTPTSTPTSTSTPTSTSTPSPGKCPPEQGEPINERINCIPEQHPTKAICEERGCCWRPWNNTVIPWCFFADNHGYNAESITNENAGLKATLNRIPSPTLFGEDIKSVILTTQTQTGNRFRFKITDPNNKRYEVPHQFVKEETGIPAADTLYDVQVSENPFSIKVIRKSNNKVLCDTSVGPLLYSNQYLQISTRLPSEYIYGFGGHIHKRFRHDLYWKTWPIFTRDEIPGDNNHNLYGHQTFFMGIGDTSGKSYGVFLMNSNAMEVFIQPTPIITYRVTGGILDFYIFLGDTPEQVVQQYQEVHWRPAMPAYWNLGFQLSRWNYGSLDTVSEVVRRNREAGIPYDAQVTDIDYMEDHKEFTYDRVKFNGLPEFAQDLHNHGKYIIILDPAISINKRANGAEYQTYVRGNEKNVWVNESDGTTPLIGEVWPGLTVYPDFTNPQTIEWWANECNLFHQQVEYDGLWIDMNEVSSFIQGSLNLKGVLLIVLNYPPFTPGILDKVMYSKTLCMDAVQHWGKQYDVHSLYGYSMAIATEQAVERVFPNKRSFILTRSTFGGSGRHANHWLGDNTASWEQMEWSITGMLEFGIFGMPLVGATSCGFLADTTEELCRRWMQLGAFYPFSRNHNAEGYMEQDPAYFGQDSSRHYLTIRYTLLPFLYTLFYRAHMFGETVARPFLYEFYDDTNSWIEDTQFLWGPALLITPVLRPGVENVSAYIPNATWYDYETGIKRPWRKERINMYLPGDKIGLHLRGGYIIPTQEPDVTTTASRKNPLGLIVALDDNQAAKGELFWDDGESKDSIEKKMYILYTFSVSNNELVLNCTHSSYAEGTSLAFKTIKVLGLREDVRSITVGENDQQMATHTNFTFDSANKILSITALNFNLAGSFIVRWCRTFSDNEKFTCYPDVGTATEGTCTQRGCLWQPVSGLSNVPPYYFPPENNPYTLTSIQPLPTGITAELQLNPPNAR
T1 sequence (P23739 1014-1841 limits assumed): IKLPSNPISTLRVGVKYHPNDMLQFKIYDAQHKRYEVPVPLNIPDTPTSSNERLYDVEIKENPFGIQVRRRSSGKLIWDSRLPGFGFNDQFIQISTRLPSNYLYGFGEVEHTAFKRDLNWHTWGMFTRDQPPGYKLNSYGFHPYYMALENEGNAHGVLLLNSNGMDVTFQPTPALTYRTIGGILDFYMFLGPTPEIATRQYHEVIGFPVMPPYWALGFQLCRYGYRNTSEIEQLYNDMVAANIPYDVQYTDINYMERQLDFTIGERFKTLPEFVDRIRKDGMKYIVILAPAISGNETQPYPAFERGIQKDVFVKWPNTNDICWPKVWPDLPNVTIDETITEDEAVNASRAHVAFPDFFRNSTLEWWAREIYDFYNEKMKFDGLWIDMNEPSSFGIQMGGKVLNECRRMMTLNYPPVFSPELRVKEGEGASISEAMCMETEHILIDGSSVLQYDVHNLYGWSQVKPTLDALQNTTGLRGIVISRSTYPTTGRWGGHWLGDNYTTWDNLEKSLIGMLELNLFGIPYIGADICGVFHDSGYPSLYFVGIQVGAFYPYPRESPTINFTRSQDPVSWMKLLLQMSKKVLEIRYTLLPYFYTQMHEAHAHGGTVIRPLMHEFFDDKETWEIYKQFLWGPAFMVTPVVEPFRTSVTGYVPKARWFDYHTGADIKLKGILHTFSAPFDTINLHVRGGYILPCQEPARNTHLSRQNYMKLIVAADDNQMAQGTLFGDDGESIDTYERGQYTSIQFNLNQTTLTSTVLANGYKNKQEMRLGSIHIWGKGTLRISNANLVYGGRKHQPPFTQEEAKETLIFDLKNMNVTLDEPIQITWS

[6] = biological target: Lysosomal alpha-glucosidase (Rattus norvegicus) (UniProt Q6P7A9); test: Potency index, ratio of neoponkoranol IC50 to test compound IC50 for inhibition of maltase in rat small intestinal brush border membrane vesicles using maltose as substrate incubated for 30 mins by glucose-oxidase method; format: cell membranes; settings: Small intestine, Membrane vesicle
Chain of Lysosomal alpha-glucosidase (Rattus norvegicus) (Q6P7A9 whole entry): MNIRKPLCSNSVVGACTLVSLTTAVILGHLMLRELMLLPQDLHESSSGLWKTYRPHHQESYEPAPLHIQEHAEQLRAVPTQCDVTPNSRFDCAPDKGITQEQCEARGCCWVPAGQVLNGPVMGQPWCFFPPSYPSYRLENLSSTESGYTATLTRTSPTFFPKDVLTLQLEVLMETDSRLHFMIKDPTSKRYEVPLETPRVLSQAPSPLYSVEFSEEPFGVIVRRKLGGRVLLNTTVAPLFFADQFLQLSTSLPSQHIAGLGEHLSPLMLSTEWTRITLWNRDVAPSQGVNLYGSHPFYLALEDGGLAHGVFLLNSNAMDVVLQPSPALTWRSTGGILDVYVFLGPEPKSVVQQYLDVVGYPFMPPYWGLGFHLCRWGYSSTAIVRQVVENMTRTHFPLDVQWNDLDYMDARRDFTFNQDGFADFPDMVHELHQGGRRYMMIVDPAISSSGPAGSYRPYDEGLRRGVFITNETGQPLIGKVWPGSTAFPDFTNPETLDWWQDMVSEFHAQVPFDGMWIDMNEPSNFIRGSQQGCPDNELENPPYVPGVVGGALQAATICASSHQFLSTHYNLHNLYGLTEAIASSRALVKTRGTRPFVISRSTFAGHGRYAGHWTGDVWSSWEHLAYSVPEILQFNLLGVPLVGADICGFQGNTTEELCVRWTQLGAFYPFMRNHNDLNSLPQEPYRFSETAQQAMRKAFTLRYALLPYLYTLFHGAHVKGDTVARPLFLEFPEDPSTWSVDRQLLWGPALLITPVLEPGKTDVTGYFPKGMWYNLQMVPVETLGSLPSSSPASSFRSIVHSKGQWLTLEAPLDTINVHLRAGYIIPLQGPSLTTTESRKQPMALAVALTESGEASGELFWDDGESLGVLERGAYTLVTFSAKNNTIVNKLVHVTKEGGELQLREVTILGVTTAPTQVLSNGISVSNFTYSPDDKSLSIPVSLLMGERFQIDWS

[7] = biological target: Sucrase-isomaltase, intestinal (Rattus norvegicus) (UniProt P23739); test: Competitive inhibition of sucrase in rat small intestinal brush border membrane vesicles using sucrose as substrate incubated for 30 mins by Lineweaver-Burk plot analysis; format: cell membranes; settings: Small intestine, Membrane vesicle
Chain of Sucrase-isomaltase, intestinal (Rattus norvegicus) (P23739 1-1013 limits assumed): as the sequence (P23739 1-1013 limits assumed) above
Chain of Sucrase-isomaltase, intestinal (Rattus norvegicus) (P23739 1014-1841 limits assumed): as the sequence (P23739 1014-1841 limits assumed) above

[8] = biological target: Lysosomal alpha-glucosidase (Rattus norvegicus) (UniProt Q6P7A9); test: Competitive inhibition of maltase in rat small intestinal brush border membrane vesicles using maltose as substrate incubated for 30 mins by Lineweaver-Burk plot analysis; format: cell membranes; settings: Small intestine, Membrane vesicle
Mus musculus [9] = test: Antihyperglycemic activity in overnight fasted ICR mouse assessed as decrease in blood glucose level at 10 mg/kg, IG administered via tube and measured after 60 mins by sucrose loading test relative to control; format: functional; parameters: scale not given: the % may be the effect or the level left; settings: 1 h
Mus musculus [10] = test: Antihyperglycemic activity in overnight fasted ICR mouse assessed as decrease in blood glucose level at 1 mg/kg, IG administered via tube and measured after 30 mins by sucrose loading test relative to control; format: functional; parameters: scale not given: the % may be the effect or the level left; settings: 0.5 h
Mus musculus [11] = test: Antihyperglycemic activity in overnight fasted ICR mouse assessed as decrease in AUC of blood glucose level at 1 mg/kg, IG administered via tube and measured after 15 to 60 mins by sucrose loading test relative to control; format: functional; parameters: scale not given: the % may be the effect or the level left; settings: time 15-60 min
[12] = Inhibition of maltase in rat small intestinal brush border membrane vesicles using maltose as substrate incubated for 30 mins by glucose-oxidase method; format: cell membranes, Small intestine, Membrane vesicle
Rattus norvegicus [13] = test: Antihyperglycemic activity in fasted rat assessed as decrease in AUC of blood glucose level at 1 mg/kg measured for 15 to 60 mins by maltose loading test relative to control; format: functional; parameters: scale not given: the % may be the effect or the level left; settings: time 15-60 min
Rattus norvegicus [14] = test: Antihyperglycemic activity in fasted rat assessed as decrease in blood glucose level at 1 mg/kg measured after 30 mins by maltose loading test relative to control; format: functional; parameters: scale not given: the % may be the effect or the level left; settings: 0.5 h
Mus musculus [15] = test: Antihyperglycemic activity in overnight fasted ICR mouse assessed as decrease in blood glucose level at 1 mg/kg, IG administered via tube and measured after 15 mins by sucrose loading test relative to control; format: functional; parameters: scale not given: the % may be the effect or the level left; settings: 0.25 h
[16] = biological target: T1, Sucrase-isomaltase, intestinal; test: Inhibition of sucrase in rat small intestinal brush border membrane vesicles using sucrose as substrate incubated for 30 mins by glucose-oxidase method; format: cell membranes, Small intestine, Membrane vesicle
Mus musculus [17] = test: Antihyperglycemic activity in overnight fasted ICR mouse assessed as decrease in AUC of blood glucose level at 10 mg/kg, IG administered via tube and measured after 15 to 60 mins by sucrose loading test relative to control; format: functional; parameters: scale not given: the % may be the effect or the level left; settings: time 15-60 min
Rattus norvegicus [18] = test: Antihyperglycemic activity in fasted rat assessed as decrease in blood glucose level at 1 mg/kg measured after 15 mins by maltose loading test relative to control; format: functional; parameters: scale not given: the % may be the effect or the level left; settings: 0.25 h
Mus musculus [19] = test: Antihyperglycemic activity in overnight fasted ICR mouse assessed as decrease in blood glucose level at 1 mg/kg, IG administered via tube and measured after 60 mins by sucrose loading test relative to control; format: functional; parameters: scale not given: the % may be the effect or the level left
Mus musculus [20] = test: Antihyperglycemic activity in overnight fasted ICR mouse assessed as decrease in blood glucose level at 10 mg/kg, IG administered via tube and measured after 15 mins by sucrose loading test relative to control; format: functional; parameters: scale not given: the % may be the effect or the level left; settings: 0.25 h
Mus musculus [21] = test: Antihyperglycemic activity in overnight fasted ICR mouse assessed as decrease in blood glucose level at 10 mg/kg, IG administered via tube and measured after 30 mins by sucrose loading test relative to control; format: functional; parameters: scale not given: the % may be the effect or the level left; settings: 0.5 h
Rattus norvegicus [22] = test: Antihyperglycemic activity in fasted rat assessed as decrease in blood glucose level at 1 mg/kg measured after 60 mins by maltose loading test relative to control; format: functional; parameters: scale not given: the % may be the effect or the level left

## C[C@H]1O[C@H](O[C@H]2[C@H](O)[C@@H](O)[C@@H](O[C@H]3[C@H](O)[C@@H](O)C(O)O[C@@H]3CO)O[C@@H]2CO)[C@H](O)[C@@H](O)[C@@H]1N[C@H]1C=C(CO)[C@@H](O)[C@H](O)[C@H]1O (stereo partly drawn) [ACARBOSE]
Mus musculus [1]
  Activity: 40.2%
Mus musculus [2]
  Activity: 45.1%
Mus musculus [3]
  Activity: 40%
Mus musculus [4]
  Activity: 50.9%

## OC[C@@H]1[C@@H](O)[C@H](O)C[S@@+]1C[C@@H](O)[C@H]1OC(c2ccccc2C(F)(F)F)OC[C@H]1O.[Cl-] (stereo partly drawn)
[5]
  Ki: 398 nM
[6]
  Ratio IC50: 40
[7]
  inhibition: Active
[8]
  inhibition: Active
Mus musculus [9]
  Activity: 51%
Mus musculus [10]
  Activity: 47.3%
Mus musculus [11]
  Activity: 34%
[12]
  IC50: 230 nM
Rattus norvegicus [13]
  Activity: 39.7%
Rattus norvegicus [14]
  Activity: 48.7%
Mus musculus [15]
  Activity: 35.1%
[16]
  IC50: 220 nM
Mus musculus [17]
  Activity: 45.8%
Rattus norvegicus [18]
  Activity: 45.7%
Mus musculus [19]
  Activity: 37.8%
Mus musculus [20]
  Activity: 43.5%
Mus musculus [21]
  Activity: 56.6%
Rattus norvegicus [22]
  Activity: 43.2%

## OC[C@@H]1[C@@H](O)[C@H](O)C[S@@+]1C[C@@H](O)[C@H]1OC(c2ccccc2Cl)OC[C@H]1O (stereo partly drawn)
[5]
  Ki: 474 nM
[12]
  IC50: 410 nM
[16]
  IC50: 540 nM

## OC[C@@H]1[C@@H](O)[C@H](O)C[S@@+]1C[C@@H](O)[C@H]1OC(c2ccc(C(F)(F)F)cc2)OC[C@H]1O (stereo partly drawn)
[12]
  IC50: 3500 nM
[16]
  IC50: 2300 nM

## O=[N+]([O-])c1ccc(C2OC[C@@H](O)[C@@H]([C@H](O)C[S@+]3C[C@@H](O)[C@H](O)[C@H]3CO)O2)cc1 (stereo partly drawn)
[12]
  IC50: 4500 nM
[16]
  IC50: 4700 nM

## OC[C@@H]1[C@@H](O)[C@H](O)C[S@@+]1C[C@@H](O)[C@@H](O)[C@@H](O)[C@@H](O)CO
Mus musculus [9]
  Activity: 45.1%
Mus musculus [10]
  Activity: 39.6%
Mus musculus [11]
  Activity: 29.6%
[12]
  IC50: 7800 nM
Rattus norvegicus [13]
  Activity: 23%
Rattus norvegicus [14]
  Activity: 34.5%
Mus musculus [15]
  Activity: 27.8%
[16]
  IC50: 1900 nM
Mus musculus [17]
  Activity: 40%
Rattus norvegicus [18]
  Activity: 35.3%
Mus musculus [19]
  Activity: 35.3%
Mus musculus [20]
  Activity: 37.5%
Mus musculus [21]
  Activity: 48.3%
Rattus norvegicus [22]
  Activity: 19.8%

## OC[C@@H]1[C@@H](O)[C@H](O)C[S@@+]1C[C@@H](O)[C@H]1OC(c2cccc(C(F)(F)F)c2)OC[C@H]1O (stereo partly drawn)
[12]
  IC50: 1500 nM
[16]
  IC50: 300 nM

## OC[C@@H]1[C@@H](O)[C@H](O)C[S@@+]1C[C@@H](O)[C@H]1OC(c2ccccc2F)OC[C@H]1O (stereo partly drawn)
[5]
  Ki: 562 nM
[12]
  IC50: 840 nM
[16]
  IC50: 400 nM

Reference: ChEMBL document CHEMBL5247644, “Design and Synthesis of Sulfonium Derivatives: A Novel Class of α-Glucosidase Inhibitors with Potent In Vivo Antihyperglycemic Activities” (J Med Chem, 2023)
